Structures are written as SMILES. Toxic doses and inconclusive results are not listed.

In the experiment the test system is BDF1 mice, P388 leukemia ip, median survival T/C. In words: NCI In Vivo Anticancer Drug Screen. Data for tumor model P388 Leukemia (intraperitoneal) in B6D2F1 (BDF1) mice. To be noted: endpoint: median survival time, higher = longer survival. In a few lines:
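Each value expresses how treatment altered survival: treated-mouse outcome over vehicle-mouse outcome, both groups bearing the transplanted tumour.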

Setting [1] is: dose: 50.0 mg/kg/injection, schedule: Q01DX009 (ip), vehicle: saline with Tween-80.
Where [2] appears, read: dose: 100.0 mg/kg/injection, schedule: Q01DX009 (ip), vehicle: saline with Tween-80.
The mark [3] stands for this setting: dose: 200.0 mg/kg/injection, schedule: Q01DX009 (ip), vehicle: saline with Tween-80.
Where [4] appears, read: dose: 50.0 mg/kg/injection, schedule: Q01DX009 (ip), vehicle: Klucel (hydroxypropylcellulose) (HPC).
Where [5] appears, read: dose: 100.0 mg/kg/injection, schedule: Q01DX009 (ip), vehicle: Klucel (hydroxypropylcellulose) (HPC).
The mark [6] stands for this setting: dose: 200.0 mg/kg/injection, schedule: Q01DX009 (ip), vehicle: Klucel (hydroxypropylcellulose) (HPC).
[7] abbreviates: dose: 100.0 mg/kg/injection, schedule: Q04DX003 (ip), vehicle: saline.
[8] abbreviates: dose: 200.0 mg/kg/injection, schedule: Q01DX009 (ip), vehicle: saline.
Setting [9] is: dose: 200.0 mg/kg/injection, schedule: Q04DX003 (ip), vehicle: saline.
[10] abbreviates: dose: 400.0 mg/kg/injection, schedule: Q04DX003 (ip), vehicle: saline.
[11] abbreviates: dose: 100.0 mg/kg/injection, schedule: Q01DX001 (ip), vehicle: Klucel (hydroxypropylcellulose) (HPC).
Setting [12] is: dose: 200.0 mg/kg/injection, schedule: Q01DX001 (ip), vehicle: Klucel (hydroxypropylcellulose) (HPC).
[13] abbreviates: dose: 400.0 mg/kg/injection, schedule: Q01DX001 (ip), vehicle: Klucel (hydroxypropylcellulose) (HPC).
Where [14] appears, read: dose: 100.0 mg/kg/injection, schedule: Q04DX003 (ip), vehicle: saline with Tween-80.
Where [15] appears, read: dose: 200.0 mg/kg/injection, schedule: Q04DX003 (ip), vehicle: saline with Tween-80.

On to `O=c1/c(=C\C=C\c2ccccc2)sc2n1CCN=2`, for which the T/C under setting [1] was 92 % of control, the T/C under setting [2] was 92 % of control and the T/C under setting [3] was 92 % of control.

For the compound `Oc1ccc2ccc3[nH]cnc3c2c1`, the T/C is, setting by setting: under setting [4], 95 % of control; under setting [5], 95 % of control; under setting [6], 100 % of control.

As for `CCOC(=O)c1cnc(SC)nc1NCc1ccccc1Cl`, the T/C was 100 % of control under setting [5]; 100 % of control under setting [6]; 100 % of control (dose: 400.0 mg/kg/injection, schedule: Q01DX009 (ip), vehicle: Klucel (hydroxypropylcellulose) (HPC)).

As to `CN(CCO)/N=N/c1nc[nH]c1C(N)=O`, the T/C is, setting by setting: (dose: 1.56 mg/kg/injection, schedule: Q01DX009 (ip), vehicle: saline) 95 % of control; (dose: 3.13 mg/kg/injection, schedule: Q01DX009 (ip), vehicle: saline) 100 % of control; (dose: 6.25 mg/kg/injection, schedule: Q01DX009 (ip), vehicle: saline) 100 % of control; (dose: 25.0 mg/kg/injection, schedule: Q01DX009 (ip), vehicle: saline) 92 % of control; under setting [7], 105 % of control; under setting [8], 110 % of control. Moreover, the T/C reads like this: under setting [9], 100 % of control; (dose: 400.0 mg/kg/injection, schedule: Q01DX009 (ip), vehicle: saline) 100 % of control; under setting [10], 105 % of control.

With `c1ccc2c(c1)cc1c3nnnn3ncn21`, the T/C by setting is: under setting [1], 106 % of control; under setting [2], 104 % of control; under setting [3], 89 % of control.

For the compound `O=[N+]([O-])c1ccc(F)c(CNc2ncnc3c2ncn3C2CCCCO2)c1` (centres undefined), the T/C under setting [11] is 95 % of control, the T/C under setting [12] is 110 % of control and the T/C under setting [13] is 105 % of control.

In the case of `O=C1C(N2CC2)=C(N2CCCC(O)C2)C(=O)C(N2CC2)=C1N1CCCC(O)C1` (centres undefined), the T/C reads like this: (dose: 1.0 mg/kg/injection, schedule: Q01DX009 (ip), vehicle: saline) 195 % of control; (dose: 2.0 mg/kg/injection, schedule: Q01DX009 (ip), vehicle: saline) 99 % of control.

With `CC(=O)[C@H]1CC[C@H]2[C@@H]3C[C@H](C)C4=CC(=O)CC[C@]4(C)[C@H]3[C@@H](O)C[C@]12C`, the T/C was 107 % of control under setting [14] and 100 % of control under setting [15].

As for `C=C1C(=O)OC2CC(C)CCC/C(CO)=C/C(OC(=O)/C(=C/CO)CO)C12` (centres undefined), the T/C is 104 % of control (dose: 3.5 mg/kg/injection, schedule: Q01DX009 (ip), vehicle: saline) and 108 % of control (dose: 7.0 mg/kg/injection, schedule: Q01DX009 (ip), vehicle: saline).

For `OCC(O)C(O)C(O)C(O)c1nc2ccccc2[nH]1` (centres undefined), the T/C is, setting by setting: (dose: 50.0 mg/kg/injection, schedule: Q04DX003 (ip), vehicle: saline with Tween-80) 119 % of control; under setting [14], 97 % of control; under setting [15], 95 % of control; (dose: 400.0 mg/kg/injection, schedule: Q04DX003 (ip), vehicle: saline with Tween-80) 103 % of control.

Consider `COc1cc(-c2ccc(N=Nc3c(O)ccc4ccccc34)c(OC)c2)ccc1N=Nc1ccc2c(S(=O)(=O)O)cc(S(=O)(=O)O)c(N)c2c1O`, for which the T/C by setting is: (dose: 50.0 mg/kg/injection, schedule: Q01DX009 (ip), vehicle: saline) 111 % of control; (dose: 50.0 mg/kg/injection, schedule: Q04DX003 (ip), vehicle: saline) 104 % of control; under setting [7], 100 % of control; under setting [8], 105 % of control; under setting [9], 100 % of control.

Turning to `ClC1=C(Cl)C(Cl)(C2(Cl)C(Cl)=C(Cl)C(Cl)=C2Cl)C(Cl)=C1Cl`, the T/C is, setting by setting: (dose: 100.0 mg/kg/injection, schedule: Q01DX009 (ip), vehicle: gum acacia) 123 % of control; (dose: 100.0 mg/kg/injection, schedule: Q04DX003 (ip), vehicle: gum acacia) 108 % of control; (dose: 200.0 mg/kg/injection, schedule: Q04DX003 (ip), vehicle: gum acacia) 116 % of control; (dose: 400.0 mg/kg/injection, schedule: Q04DX003 (ip), vehicle: gum acacia) 104 % of control.

For `N#CC(=Nc1cc(Cl)cc(Cl)c1)C1=C(O)c2ccccc2C1=O`, the T/C was 101 % of control (dose: 50.0 mg/kg/injection, schedule: Q01DX005 (ip), vehicle: saline with Tween-80); 111 % of control (dose: 100.0 mg/kg/injection, schedule: Q01DX005 (ip), vehicle: saline with Tween-80); 101 % of control (dose: 200.0 mg/kg/injection, schedule: Q01DX005 (ip), vehicle: saline with Tween-80).

`CCCCOB(OCCCC)Oc1c(C(C)(C)C)cccc1C(C)(C)C`: the T/C under setting [7] was 100 % of control, the T/C under setting [9] is 112 % of control and the T/C under setting [10] was 108 % of control.

`O=[N+]([O-])C=C1CCCCC1`: the T/C reads like this: (dose: 25.0 mg/kg/injection, schedule: Q01DX001 (ip), vehicle: saline with Tween-80) 113 % of control; (dose: 50.0 mg/kg/injection, schedule: Q01DX001 (ip), vehicle: saline with Tween-80) 118 % of control; (dose: 100.0 mg/kg/injection, schedule: Q01DX001 (ip), vehicle: saline with Tween-80) 113 % of control.

With `CC(C)Sc1nc(N)nc2nc[nH]c12`, the T/C was 100 % of control (dose: 6.25 mg/kg/injection, schedule: Q01DX009 (ip), vehicle: Klucel (hydroxypropylcellulose) (HPC)); 105 % of control (dose: 12.5 mg/kg/injection, schedule: Q01DX009 (ip), vehicle: Klucel (hydroxypropylcellulose) (HPC)); 100 % of control (dose: 25.0 mg/kg/injection, schedule: Q01DX009 (ip), vehicle: Klucel (hydroxypropylcellulose) (HPC)); 100 % of control under setting [4]; 105 % of control (dose: 100.0 mg/kg/injection, schedule: Q04DX003 (ip), vehicle: Klucel (hydroxypropylcellulose) (HPC)); 105 % of control (dose: 200.0 mg/kg/injection, schedule: Q04DX003 (ip), vehicle: Klucel (hydroxypropylcellulose) (HPC)).

Regarding `COc1cc2c(c(OC)c1OC)-c1ccc(O)cc1[C@@H](NC(C)=O)CC2`, the T/C runs as follows: (dose: 2.5 mg/kg/injection, schedule: Q01DX010 (ip), vehicle: water) 86 % of control; (dose: 5.0 mg/kg/injection, schedule: Q01DX010 (ip), vehicle: water) 118 % of control; (dose: 10.0 mg/kg/injection, schedule: Q01DX010 (ip), vehicle: water) 109 % of control.

`O=S(=O)(NCCO)c1ccc(Cl)cc1`: the T/C is 100 % of control under setting [11], 100 % of control under setting [12] and 100 % of control under setting [13].

The values above are taken from PubChem BioAssay AID328 (DTP/NCI, 2004).
